In US20170101438A1, “COSMETIC OR PHARMACEUTICAL METHODS FOR THE TREATMENT AND/OR CARE OF THE SKIN AND/OR HAIR USING TRIPEPTIDES CAPABLE OF STIMULATING CYCLIC ADENOSINE MONOPHOSPHATE SYNTHESIS” (Lipotec, S.A., priority 2009, published 2017):

How the values were obtained:
[1] = test system: human G361 melanocyte cell line; assay: Melanogenesis stimulation (melanin extracted, absorbance at 470 nm); format: cell-based; details: 4 days, G361 cells, normalized to number of cells
Procedure: A human G361 melanocyte cell line was incubated for 4 days on a 12-well plate in presence of the peptide at various concentrations, after which the cells were trypsinized, the melanin was extracted and was quantified by measuring the absorbance at 470 nm in a spectrophotometer. The values obtained were normalized with regards to the number of cells. The concentration of melanin was determined in pg/cell using a standard regression analysis obtained with synthetic melanin at known concentrations.

[2] = test system: human G361 melanocyte cell line; assay: cAMP synthesis stimulation assay (competitive ELISA); format: cell-based; details: G361 cells, normalized to average basal cAMP values
Procedure: cAMP synthesis stimulation was assessed in the human G361 melanocyte cell line in the presence of the peptides of the invention. The cells were seeded (10^6 cells/plate 25 cm^2) and incubated for 24 hours in McCoy's complete medium, after which the peptides were added to 10 μM and were incubated for another 24 hours. 40 μM forskolin was used as a positive control. The cells were centrifuged and the supernatants were collected, and the cAMP levels were determined by carrying out a competitive ELISA assay following the protocols of the commercial kit (Cayman, Ref 0.581001)

**Q.** For Palm-L-Tyr-L-Tyr-L-Met-NH2, which Melanin synthesis stimulation ([1]; 10 μM) is on record?
**A.** 64%

**Q.** What about the Melanin synthesis stimulation ([1]; 50 μM) of the same molecule?
**A.** 79%

**Q.** What about the Melanin synthesis stimulation ([1]; 100 μM) of the same molecule?
**A.** 138%

**Q.** What about the cAMP increase ([2]; peptide 10 μM, 24 hours) of the same molecule?
**A.** 57%

**Q.** `C=C[C@@]1(C)CC(=O)[C@]2(O)[C@@]3(C)[C@@H](O)CCC(C)(C)[C@@H]3[C@H](O)[C@H](OC(C)=O)[C@@]2(C)O1` [Forskolin, reference compound] was tested. Which cAMP increase ([2]; positive control 40 μM) did it give?
**A.** 117%
